Test results taken from publication PMC4703992, “Crystal structures of Mycobacterium tuberculosis HspAT and ArAT reveal structural basis of their distinct substrate specificities” (Scientific Reports, 2016).

Columns and labels:
mArAT [1] = target: T1, mArAT (Mycobacterium tuberculosis, UniProt P9WML5)
T1 construct: gene pat

mHspAT [2] = target: T2, mHspAT (Mycobacterium tuberculosis, UniProt P9WML7); assay type: binding
T2 construct: gene hisC; recombinant, vector pYUB1062, over-expressed in M. smegmatis mc2 4517; homodimer

mHspAT [3] = target: T2, mHspAT; assay type: biochemical; details: pH 8.4, 37 °C
mArAT [4] = target: T1, mArAT; remark: listed apart in the source
N[C@@H](Cc1ccccc1)C(=O)O = test: purified protein; details: pH 8.4; 37.0 °C
[5] = test system: N[C@H](COP(=O)(O)O)Cc1c[nH]cn1; test: purified protein; details: pH 8.4; 37.0 °C

T1 sequence (P9WML5 whole entry): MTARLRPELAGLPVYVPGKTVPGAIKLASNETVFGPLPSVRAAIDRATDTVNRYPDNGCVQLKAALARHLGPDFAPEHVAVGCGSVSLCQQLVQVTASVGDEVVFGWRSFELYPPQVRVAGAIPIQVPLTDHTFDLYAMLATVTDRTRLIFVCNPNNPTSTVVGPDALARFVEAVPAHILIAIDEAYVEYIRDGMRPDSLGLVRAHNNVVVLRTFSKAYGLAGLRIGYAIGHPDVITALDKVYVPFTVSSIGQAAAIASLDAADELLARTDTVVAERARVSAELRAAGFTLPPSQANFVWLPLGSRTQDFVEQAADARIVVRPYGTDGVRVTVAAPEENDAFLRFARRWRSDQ
T2 sequence (P9WML7 whole entry): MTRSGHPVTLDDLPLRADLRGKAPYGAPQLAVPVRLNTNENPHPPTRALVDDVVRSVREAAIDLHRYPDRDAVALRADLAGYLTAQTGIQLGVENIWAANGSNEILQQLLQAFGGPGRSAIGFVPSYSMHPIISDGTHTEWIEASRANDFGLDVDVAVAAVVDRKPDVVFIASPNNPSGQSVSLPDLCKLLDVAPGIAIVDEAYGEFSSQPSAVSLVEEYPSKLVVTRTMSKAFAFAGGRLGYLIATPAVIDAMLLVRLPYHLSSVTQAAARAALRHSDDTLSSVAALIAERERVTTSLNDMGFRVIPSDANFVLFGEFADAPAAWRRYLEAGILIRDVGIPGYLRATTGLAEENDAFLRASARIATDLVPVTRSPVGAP

Compound: N[C@@H](Cc1ccccc1)C(=O)O [Phe]
- crystal structure, 1.98 Å (mArAT [1]): Phe is present in the active site of both the monomers of a homodimer

Compound: Cc1ncc(COP(=O)(O)O)c(C=O)c1O [PLP]
- crystal structure, 2.05 Å (mHspAT [2]): binding of the PLP as an internal aldimine via a Schiff’s base with Lys232 Nζ
- crystal structure, 1.98 Å (mArAT [1]): it exists as a PLP-Phe external aldimine intermediate complex in one of the monomers

Compound: O=S(=O)(O)CCN1CCOCC1 [MES]
- Vo'/Vo (mHspAT [3]): concentration dependent inhibition of mHspAT-Hsp activity with MES

Compound: O=C(O)CCC(=O)O [succinate]
- crystal structure, 1.95 Å (mArAT [4]): In the dicarboxylate bound form, succinate exists as a non-covalently linked moiety

Compound: mHspAT (Mycobacterium tuberculosis H37Rv)
- Km (N[C@@H](Cc1ccccc1)C(=O)O): 7.1 ± 0.81 mM
- kcat/Km (N[C@@H](Cc1ccccc1)C(=O)O): 30000 ± 3000 M⁻¹ s⁻¹
- Km [5]: 0.42 ± 0.02 mM
- kcat/Km [5]: 1.02e+06 ± 87000 M⁻¹ s⁻¹

Compound: Cc1ncc(COP(=O)(O)O)c(CN)c1O [PMP]
- crystal structure, 1.95 Å (mArAT [4]): In the active site of mArAT, indigenously bound PMP and succinate were modelled
